From patent US8703822B2, “Method for removing undifferentiated and dedifferentiated stem cell” (Nanyang Polytechnic, priority 2009, dated 2014)
Values after ≈ are worked out from the molar mass of the structure shown. Where two headings read alike, the source gives them in different places.

Key:
[1] = system: breast CSC cell line (Celprogen Cat#36102-29P-T25); experiment: resazurin cell viability assay on breast CSC cell line; type: cell-based; conditions: 12.5 μg/mL, FIG. 14
CSCs = experiment: cytotoxic effect on CSCs, summary over colon and breast CSC lines; type: cell-based; conditions: summary of the experimental data
Method: Seven analogues having different side chain lengths (JC010, JC011, JC017, JC040, JC048, JC049 and JC050) were tested for their cytotoxic effect on CSCs using the resazurin cell viability assay. Two CSC cell lines were used, a colon CSC cell line (Celprogen Cat#36112-39P-T25) and a breast CSC cell line (Celprogen Cat#36102-29P-T25).

[2] = system: colon CSC cell line (Celprogen Cat#36112-39P-T25); conditions: 12.5 μg/mL, FIG. 13
hESCs = experiment: light microscopy of hESC colonies cultured on murine feeder cells, hESC-selective killing; type: cell-based, human; conditions: for cytotoxic effect on undifferentiated hESCs (summary) / specificity (hESCs versus feeder cells), compared among JC010, JC011 and JC017: summary of the experimental data; for selective killing of hESCs (FIG. 4): 24 hr incubation; for lowest concentration at which cytotoxic effects were seen: 2.5 μg/mL = 8 μM; for killing of hESCs (light microscopic images, FIG. 2): JC010 12 and 24 hours, JC011 24 hours
Method: (§1) Using the above cell viability assays, various cell types including hESCs, differentiated hESCs, human primary astrocytes and murine feeder cells (mouse embryonic fibroblasts (MEFs)) were treated with one of the analogues synthesized in Examples 1 to 3. The cells were then visualized with 5×, 10×, 20× and 40× objectives using dark field, phase optics and fluorescence microscopy with an Olympus IX51 inverted microscope or Leica MZ8 stereomicroscope.
(§2) In the phase contrast optics images (FIGS. 1A and 1B), the hESCs are seen as dark colonies surrounded by the murine feeder cells (mouse embryonic fibroblasts (MEFs)). In the dark field images (FIGS. 1C and 1D), the hESCs are seen as bright colonies surrounded by the murine feeder cells (mouse embryonic fibroblasts (MEFs)).

[3] = system: murine feeder cells (mouse embryonic fibroblasts (MEFs)); experiment: light microscopy of murine feeder cells co-cultured with hESCs; type: cell-based; conditions: summary of the experimental data
Method: as §1, §2

[4] = system: normal human primary astrocytes; experiment: resazurin cell viability assay on normal human primary astrocytes (FIG. 8B); type: cell-based
[5] = comparison value, source not given; cited from earlier work
hESC = experiment: Trypan Blue cell viability assay on hESC; type: cell-based, human; conditions: 40 μM; 24 hours (JC011 also 48 hr), compared to untreated hESC
Method: The images on the left (A and B) show untreated hESC while the images on the right (C and D) show hESC treated with 40 μM of JC010 for 24 hours. The arrows indicate trypan blue positive dead cells.
The Trypan Blue cell viability assay was conducted by first diluting 10 μL of a cell suspension with 10 μL of 0.4% w/v Trypan Blue solution. The cell suspension and Trypan Blue solution were mixed using a pipette, after which the mixture was incubated at room temperature for 10 minutes. 20 μL of the mixture was then loaded into a charged hemocytometer for visualization under 10× and 20× magnification phase optics microscopy. Cells which stain blue are dead cells.

[6] = system: undifferentiated hESCs (H1 cells); experiment: resazurin cell viability assay on undifferentiated H1 hESCs (FIG. 7A); type: cell-based, human; conditions: 40 μM, 24 hr and 48 hr; versus JC005, capsaicin (CAP) and DMSO
Method: (§3) The hESCs used are undifferentiated H1 cells, while the murine feeder cells (mouse embryonic fibroblasts (MEFs)) used are J28 C57/BL6J cells. The columns represent the means of 4 experiments while the bars represent relative fluorescence ±s.d. The control was untreated hESCs and untreated murine feeder cells (mouse embryonic fibroblasts (MEFs)) with a final DMSO concentration of 1% v/v while the final sample concentration was 40 μM. * denotes P<0.01, Student's T-test, 2-tail.
(§4) The resazurin cell viability assay was conducted on hESC, differentiated hESCs, osteoblasts, murine feeder cells (mouse embryonic fibroblasts (MEFs)), IPSCs derived from foreskin (IPS-DF19-9 and IPS-foreskin) and CSCs (colon CSCs and breast CSCs). The assay is based on the use of an indicator dye resazurin to measure the metabolic capacity of a cell. […]
(§5) In wells A12-H12, 200 μl/well DMSO were added to provide the Blank reading.
(§6) The percentage of the resazurin activity was calculated based on the following equation:
(§7) The percentage of cell death was calculated based on the following equation: % cell death=100−% activity (Eq. 2) […]
(§8) […] The plates were further incubated at 37° C. for 2 h, after which the plate was read at an excitation wavelength of 535 nm and an emission wavelength of 590 nm with a Tecan Infinite 200 microplate reader.

[7] = system: murine feeder cells (mouse embryonic fibroblasts (MEFs)), J28 C57/BL6J cells; experiment: resazurin cell viability assay on murine feeder cells (FIG. 7B); type: cell-based; conditions: 40 μM, 24 hr and 48 hr; versus JC005, capsaicin (CAP) and DMSO
Method: as §3, §4, §5, §6, §7, §8

[8] = system: differentiated hESCs (H1); type: cell-based
Method: (§9) The resazurin cell viability assay was conducted on hESC, differentiated hESCs, osteoblasts, murine feeder cells (mouse embryonic fibroblasts (MEFs)), IPSCs derived from foreskin (IPS-DF19-9 and IPS-foreskin) and CSCs (colon CSCs and breast CSCs). The assay is based on the use of an indicator dye resazurin to measure the metabolic capacity of a cell. A viable cell would retain the ability to reduce resazurin to resorufin, which is a highly fluorescent compound.
as §6
(§10) The percentage of cell death was calculated based on the following equation: % cell death=100−% activity (Eq. 2)
(§11) The cells were plated in a 96-well multi-well plate 5 days before the assay. 200 μL of medium containing 10^5/mL cells (i.e. 2×10^4 cells) were used for each well.
The cells were then treated with 12.5 μg/mL of the capsaicin analogues. The final concentration of DMSO used as control was 1% v/v.
[…] The media was then removed from the wells and 100 μL of PBS buffer was added to each well. 20 μL of resazurin was added to each well to give a final resazurin concentration of 8 μg/mL. The plates were further incubated at 37° C. for 2 h, after which the plate was read at an excitation wavelength of 535 nm and an emission wavelength of 590 nm with a Tecan Infinite 200 microplate reader.
bGFG is a critical growth factor that maintains the hESCs in the undifferentiated state. Removal or withdrawal of bGFG induces hESCs to undergo differentiation.

Wicell H1 cells = experiment: dichlorofluorescin diacetate (DCFH-DA) analysis of reactive oxygen species; type: cell-based, human; conditions: 12.5 μg/mL, 3 hr
Method: Live adherent cells were washed with PBS solution. DCHF-DA solution was then added to the cells in PBS solution at a final working concentration of 10 μM. The mixture was then incubated at room temperature for 5 minutes, and visualized under a fluorescence microscope with FITC filters. Bright green fluorescent cells are indicative of cells with a high content of reactive oxygen species (ROS).

undifferentiated hESCs = experiment: dose response curves on undifferentiated hESCs (FIG. 11A); type: cell-based, human; conditions: from dose response curve FIG. 11A
Excerpt: In other words, JC010 and JC011 were very cytotoxic against undifferentiated hESCs. It can also be seen from the dose response curve in FIG. 11B, that both analogues were not cytotoxic to differentiated cells.

IPS-DF19-9 cells = experiment: resazurin cell viability assay on IPS-DF19-9 cells; type: cell-based; conditions: 12 μg/mL, 16-hour exposure
Method: as §9, §6, §10, §11
(§12) The cells were then incubated at 37° C. for about 16 h overnight in 5% CO2. The media was then removed from the wells and 100 μL of PBS buffer was added to each well. 20 μL of resazurin was added to each well to give a final resazurin concentration of 8 μg/mL. The plates were further incubated at 37° C. for 2 h, after which the plate was read at an excitation wavelength of 535 nm and an emission wavelength of 590 nm with a Tecan Infinite 200 microplate reader. […]

IPS-foreskin cells = experiment: resazurin cell viability assay on IPS-foreskin cells; type: cell-based; conditions: 12 μg/mL, 16-hour exposure
Method: as §9, §6, §10, §11, §12

CCCCCCNC(=O)Cc1cc(O)ccc1O [JC025]
selective cytotoxic activity towards undifferentiated or dedifferentiated stem cells (hESC cell line BGO1v): did not exhibit any selective cytotoxic activity

CCCCCCCCCCCCCC(=O)NCc1ccc(O)c(O)c1 [JC050]
cell death, breast CSC cell line [1]: 25-35%

CCCCCCCCCCCC(=O)NCc1ccc(O)c(O)c1 [JC048]
cell death, breast CSC cell line [1]: ~55% | cytotoxic effect on CSCs (summary) (CSCs): high cytotoxic effect | cell death, colon CSC cell line [2]: ~45%

CCCCCCNC(=O)NCc1ccc(O)c(O)c1 [JC017]
killing effect on hESCs (light microscopic images, FIG. 3) (hESCs; 40 μM, 12 hours, compared to FIG. 2): not as selective nor as potent as the effect of the analogues JC010 and JC011 | cytotoxic effect on undifferentiated hESCs (summary) (hESCs): particularly high cytotoxic effect | specificity (hESCs versus feeder cells), compared among JC010, JC011 and JC017 (hESCs): lowest specificity | killing of feeder cells (summary) [3]: some feeder cells were also killed | cell death of normal human primary astrocytes [4]: low percentages of cell death | cell death, breast CSC cell line [1]: about 15% | cell death of hESCs (BGO1v) (hESC cell line BGO1v): high percentages of cell death | cell death, colon CSC cell line [2]: 15-33%

CCCCCCCCCC(=O)NCc1ccc(O)c(O)c1 [JC040]
cell death, breast CSC cell line [1]: 25-35% | cytotoxic effect on CSCs (summary) (CSCs): high cytotoxic effect | cell death, colon CSC cell line [2]: ~45%

CCCCCCCCCCC(=O)NCc1ccc(O)c(O)c1 [JC049]
cell death, breast CSC cell line [1]: 25-35% | cytotoxic effect on CSCs (summary) (CSCs): high cytotoxic effect | cell death, colon CSC cell line [2]: 15-33%

CCCCCCCCNC(=O)Cc1cc(O)ccc1O [JC026]
selective cytotoxic activity towards undifferentiated or dedifferentiated stem cells (hESC cell line BGO1v): did not exhibit any selective cytotoxic activity

COc1cc(CNC(=O)CCCC/C=C/C(C)C)ccc1O [capsaicin]
concentration for in vitro cytotoxic effect [5]: 100 µM

CCCCCCCCC(=O)NCc1ccc(O)c(O)c1 [JC011]
selective killing of hESCs (FIG. 4) (hESCs; 2.5 μg/mL (8 μM)): selectively killed | lowest concentration at which cytotoxic effects were seen (hESCs): 2.5 µg/mL | selective killing of hESCs (FIG. 4) (hESCs; 12.5 μg/mL (40 μM)): selectively killed | killing of hESCs (light microscopic images, FIG. 2) (hESCs; 40 μM): selective and rapid killing of hESCs | cytotoxic effect on undifferentiated hESCs (summary) (hESCs): particularly high cytotoxic effect | specificity (hESCs versus feeder cells), compared among JC010, JC011 and JC017 (hESCs): highest specificity | killing of hESC in Trypan Blue assay (FIGS. 5 and 6) (hESC): wide spread killing of hESC | relative fluorescence of treated undifferentiated hESCs (H1 cells) [6]: significantly lower | relative fluorescence of treated murine feeder cells [7]: not significantly different | cell death of normal human primary astrocytes [4]: low percentages of cell death | cytotoxic effect on differentiated cells (summary) [8]: relatively low | cytotoxicity to differentiated cells (dose response curve) [8]: not cytotoxic | killing of differentiated hESCs (relative fluorescence versus control) ([8]; 40 μM, 24 hr, bGFG withdrawn, FIG. 9): did not kill differentiated hESCs | ROS content compared to untreated cells (Wicell H1 cells): decreased significantly | IC50 (in words) (undifferentiated hESCs): at the nanogram level | IPS-DF19-9 cells killed compared to the control (IPS-DF19-9 cells): about 67% | IPS-DF19-9 cells remained alive (IPS-DF19-9 cells): 33% | IPS-foreskin cells killed compared to the control (IPS-foreskin cells): about 62% | IPS-foreskin cells remained alive (IPS-foreskin cells): 38% | cell death, breast CSC cell line [1]: about 15% | cell death of hESCs (BGO1v) (hESC cell line BGO1v): high percentages of cell death

CCCCCCCCC(=O)NCc1ccc(OC)c(O)c1 [JC005]
selective killing of hESCs (FIG. 4) (hESCs; 12.5 μg/mL (40 μM)): No such killing effect | cell death of normal human primary astrocytes ([4]; 40 μM, FIG. 8B): not cytotoxic | cell death of hESCs (BGO1v) (hESC cell line BGO1v; 40 μM, FIG. 8A): not cytotoxic

CCCCCCCCNC(=O)NCc1ccc(O)c(O)c1 [JC010]
selective killing of hESCs (FIG. 4) (hESCs; 2.5 μg/mL (8 μM)): selectively killed | lowest concentration at which cytotoxic effects were seen (hESCs): 2.5 µg/mL | selective killing of hESCs (FIG. 4) (hESCs; 12.5 μg/mL (40 μM)): selectively killed | killing of hESCs (light microscopic images, FIG. 2) (hESCs; 40 μM): selective and rapid killing of hESCs | cytotoxic effect on undifferentiated hESCs (summary) (hESCs): particularly high cytotoxic effect | killing of hESC in Trypan Blue assay (FIGS. 5 and 6) (hESC): wide spread killing of hESC | relative fluorescence of treated undifferentiated hESCs (H1 cells) [6]: significantly lower | relative fluorescence of treated murine feeder cells [7]: not significantly different | cell death of normal human primary astrocytes [4]: low percentages of cell death | cytotoxic effect on differentiated cells (summary) [8]: relatively low | cytotoxicity to differentiated cells (dose response curve) [8]: not cytotoxic | IC50 (undifferentiated hESCs; Homo sapiens): ~2.5 mg/L (≈ 8.49 µM) | cell death, breast CSC cell line [1]: about 15% | cell death of hESCs (BGO1v) (hESC cell line BGO1v): high percentages of cell death
